A short description of this experiment: Inhibition of SARS-CoV-2 wild type papain-like protease (PLpro) C111S mutant extracted from Escherichia coli using LKGG-AMC as substrate incubated for 60 mins by fluorescence based analysis. Set-up: species or system Severe acute respiratory syndrome coronavirus 2.

A word on the IC50: it is the concentration at which inhibition is half-maximal. Read a low IC50 as greater potency. The molecule `CCC(=O)Nc1ccc(C)c(C(=O)N[C@H](C)c2cccc3ccccc23)c1` came in with an IC50 of 6.4 µM. In the case of `Cc1ccc(NC(=O)NC(N)=O)cc1C(=O)N[C@H](C)c1cccc2ccccc12` it was 5.1 µM.

These data come from ChEMBL document CHEMBL6092147, “Design of inhibitors of SARS-CoV-2 papain-like protease deriving from GRL0617: Structure-activity relationships” (Bioorg Med Chem, 2024).
